# Source: patent US20050020576A1, “Kappa agonist compounds and pharmaceutical formulations thereof” (priority 1996, published 2005)
# Counter-ions that a name gives are not always drawn. Like-named read-outs stand apart in the source and are kept apart here.
# Key:
# [1] = test system: formalin-induced flinching; assay: animal or person; type: in vivo, male Sprague-Dawley rats
# [2] = target: cloned human kappa receptor (Homo sapiens, UniProt P41145); assay: biochemical; type: binding
# Chain of cloned human kappa receptor (P41145 whole entry): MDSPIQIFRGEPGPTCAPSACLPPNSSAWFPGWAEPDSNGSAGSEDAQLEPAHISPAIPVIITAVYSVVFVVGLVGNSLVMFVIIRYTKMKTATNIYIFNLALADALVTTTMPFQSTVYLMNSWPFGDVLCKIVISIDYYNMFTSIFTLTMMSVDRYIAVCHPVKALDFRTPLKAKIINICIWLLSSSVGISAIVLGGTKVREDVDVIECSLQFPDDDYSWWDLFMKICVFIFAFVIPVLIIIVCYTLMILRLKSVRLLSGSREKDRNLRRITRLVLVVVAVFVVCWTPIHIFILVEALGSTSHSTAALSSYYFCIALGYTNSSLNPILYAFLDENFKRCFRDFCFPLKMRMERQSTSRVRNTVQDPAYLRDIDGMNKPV
SMILES,melting point,also measured
"O=C(Cc1ccc(C(F)(F)F)cc1)N1CCN(C(=O)C(F)(F)F)CC1CN1CCCC1 (racemic) [Example 1h, 4-Trifluoroacetyl-1-[(-4-trifluoromethylphenyl)acetyl]-2-(R,S)-(1-pyrrolidinyl)methyl]piperazine hydrochloride]",,"inhibition in vivo at 0.3 µM ([1]; Rattus norvegicus, read-out: Formalin (% A @ 300 nM) i. paw): 100%; Ki ([2]; Ki, nM 3H-Diprenorphin): 50 nM"
"CN(C(=O)Cc1ccc(O)c(N(S(C)(=O)=O)S(C)(=O)=O)c1)[C@H](CN1CCCC1)c1ccccc1 [Example 130, 2-(3-N-Bis-methylsulfonamido-3-amino-4-hydroxyphenyl)-N-methyl-N-[(1S)-1-phenyl-2-(1-pyrrolidinyl)ethyl]acetamide]",,"Late Phase Formalin (i. paw), % @ 300 ([1]; rat, in vivo): 46% @ 300; Ki ([2]; Ki (nM) [3H]-Diprenorphin κ): 1.3 nM"
COc1cc(CC(=O)N(C)[C@H](CN2CCCC2)c2ccccc2)c(S(=O)(=O)N2CCN(C)CC2)cc1OC [Example 138],,"Late Phase Formalin (i. paw), % @ 300 ([1]; rat, in vivo): 80% @ 300; Ki ([2]; read-out: Ki(nM) [3H]-Diprenorphin κ): 1.3 nM"
"COC(=O)N1CCN(C(=O)Cc2ccc(C(F)(F)F)cc2NCC(=O)O)C(CN2CCCC2)C1 (racemic) [Example 1a, Methyl-4-[-2-glycyl-4-(trifluoromethylphenyl)acetyl]-3-(R,S)-[(1-pyrrolidinyl)-methyl]-1-piperazinecarboxylate]",165 to 170 °C,"Ki ([2]; Table IA, read-out: Ki(nM) (3H)-Diprenorphin): 248 nM"
"COC(=O)N1CCN(C(=O)Cc2ccc(C(F)(F)F)cc2[N+](=O)[O-])C(CN2CCC[C@H]2CO)C1 (mixture of isomers) [Example 1m, Methyl-4-[(2-nitro-4-α,α,α-trifluoromethylphenyl)acetyl]-3-(R,S)-[(2-(S)-pyrrolidinemethanol)methyl]-1-piperazinecarboxylate hydrochloride]",,"Formalin A50 mg/kg s.c. ([1]; rat, in vivo, sc): 1.7 mg/kg; Ki ([2]; Ki, nM 3H-Diprenorphin): 49.5 nM"
"COc1ccc(CC(=O)N(C)[C@H](CN2CCCC2)c2ccccc2)cc1NS(C)(=O)=O [Example 122, 2-(3-N-Methylsulfonamido-3-amino-4-methoxyphenyl)-N-methyl-N-[(1S)-1-phenyl-2-(1-pyrrolidinyl)ethyl]acetamide methane sulfonate]",,"Late Phase Formalin (i. paw), % @ 300 ([1]; rat, in vivo): 85% @ 300; Ki ([2]; Ki (nM) [3H]-Diprenorphin κ): 0.8 nM"
"CNS(=O)(=O)c1cc(CC(=O)N(C)[C@H](CN2CCCC2)c2ccccc2)ccc1Cl.Cl [Example 3l, 2-[3-(N-Methylsulfamoyl)-4-chlorophenyl]-N-methyl-N-{[1S]-1-phenyl-2-[1-pyrrolidinyl]ethyl}acetamide hydrochloride]",,"Late Phase Formalin, % @ 300 ([1]; rat, in vivo): 73% @ 300; Ki ([2]; Ki (nM) [3H]-Diprenorphin κ): 3.8 nM"
"CNS(=O)(=O)c1cccc(CC(=O)N(C)[C@H](CN2CCCC2)c2ccccc2)c1.Cl [Example 3q, 3-(N-Methylsulfamoyl)-phenyl-N-methyl-N-[(1S)-1-phenyl-2-(1-pyrrolidinyl)ethyl]acetamide hydrochloride]",> 250 °C (dec.),Ki ([2]; Ki (nM) [3H]-Diprenorphin κ): 3.2 nM
"CNS(=O)(=O)c1cc(CC(=O)N(C)[C@@H]2CCCC[C@H]2N2CCCC2)ccc1F.Cl (racemic) [Example 4i, (±)-trans-4-Fluoro-3-methylsulfamoyl-N-methyl-N-[2-(1-pyrrolidinyl)cyclohexyl]phenylacetamide hydrochloride]",265 to 267 °C,"[3H]-Diprenorphin, % @ 1 μM [2]: 31% @ 1 μM"
"CN(C(=O)C(c1ccccc1)c1ccccc1)[C@H](CN1CC[C@H](O)C1)c1ccccc1 [III-43, reference compound]",,"Late Phase Formalin A50, mg/ms (i-paw) ([1]; rat, in vivo): 59 mg/ms (i-paw) 28 mg/kg (sc); Late Phase Formalin A50, mg/kg (sc) ([1]; rat, in vivo, sc): 59 mg/ms (i-paw) 28 mg/kg (sc)"
"CN(C(=O)Cc1ccc(O)c(N(S(C)(=O)=O)S(C)(=O)=O)c1)[C@H](CN1CCCC1)c1ccccc1 (as salt: salt) [Example 130, 2-(3-N-Bis-methylsulfonamido-3-amino-4-hydroxyphenyl)-N-methyl-N-[(1S)-1-phenyl-2-(1-pyrrolidinyl)ethyl]acetamide]",197 to 199 °C,
COc1cc(CC(=O)N(C)[C@H](CN2CCCC2)c2ccccc2)c(S(=O)(=O)N2CCN(C)CC2)cc1OC (as salt: HCl) [Example 138],255 to 257 °C (dec.),
"CNS(=O)(=O)c1ccccc1CC(=O)N1CCN(C(=O)OC)CC1CN1CCCC1 (racemic) (as salt: hydrochloride) [Example 1e, Methyl-4-[(2-[N-methylamino)sulfamyl]phenyl)acetyl]-3-(R,S)-[(1-pyrrolidinyl)methyl]-1-piperazinecarboxylate hydrochloride]",155 to 160 °C,
"CC(=O)N1CCN(C(=O)Cc2ccccc2[N+](=O)[O-])C(CN2CCCC2)C1 (racemic) (as salt: hydrochloride) [(R,S-10e), (R,S)-4-Acetyl-1-[(2-nitrophenyl)acetyl]-3-[(1-pyrrolidinyl)-methyl]piperazine-carboxylate hydrochloride]",180 °C (dec.),
Cl.NS(=O)(=O)N1CCN(C(=O)Cc2ccc(Cl)c(Cl)c2)[C@H](CN2CCCC2)C1,183 to 185 °C,
"CN(C(=O)Cc1ccccc1NS(C)(=O)=O)C(CN1CCCC1)c1cccc(O)c1 (racemic) (as salt: sulfonic acid salt) [Example 3vv, (R,S)-1-[2-(Methanesulfonylamino)phenyl-N-methylacetamido]-1-(3-hydroxyphenyl)-2-(1-pyrrolidino)-ethane, methanesulfonic acid salt]",232 to 234 °C,
"CN(C(=O)Cc1cc2c(cc1S(=O)(=O)N(C)Cc1ccccc1)OCO2)[C@H](CN1CCCC1)c1ccccc1 (as salt: salt) [Example 131, 2-[2-(N-Benzyl-N-methylsulfamoyl)-4,5-methylenedioxyphenyl]-N-methyl-N-[(1S)-1-phenyl-2-[(1-pyrrolidinyl)ethyl]]acetamide]",236 to 238 °C,
"COC(=O)N1CCN(C(=O)Cc2ccccc2N(S(C)(=O)=O)S(C)(=O)=O)C(CN2CCCC2)C1 (racemic) (as salt: hydrochloride) [Example 1d, Methyl-4-[(2-[N,N-bis-methylsulfonamido]phenyl)acetyl]-3-(R,S)-[(1-pyrrolidinyl)methyl]-1-piperazinecarboxylate hydrochloride]",145 to 150 °C,
"CN(C(=O)Cc1ccc(Cl)c(Cl)c1)[C@H](CN1CCCC1)c1cccc(NC(=O)CCC(=O)NCC(=O)O)c1 (as salt: hydrochloride) [Example 3j, 2-(3,4-Dichlorophenyl)-N-methyl-N-{(1R,S)-1-[3-(3-(((hydroxycarbonyl)-methyl)aminocarbonyl)propionamido)phenyl]-2-(1-pyrrolidinyl)ethyl}acetamide hydrochloride]",158 °C (dec.),
"COc1ccc(CC(=O)N(C)[C@H](CN2CCCC2)c2ccccc2)cc1NS(C)(=O)=O (as salt: methane sulfonate) [Example 122, 2-(3-N-Methylsulfonamido-3-amino-4-methoxyphenyl)-N-methyl-N-[(1S)-1-phenyl-2-(1-pyrrolidinyl)ethyl]acetamide methane sulfonate]",149 to 151 °C,
"CNS(=O)(=O)c1ccc(CC(=O)N2CCN(C(=O)OC)CC2CN2CCCC2)cc1 (racemic) (as salt: hydrochloride) [Example 1f, Methyl-4-[-4-[N-methylamino)sulfamyl]phenyl)acetyl]-3-(R,S)-[(1-pyrrolidinyl)methyl]-1-piperazinecarboxylate hydrochloride]",135 to 140 °C,
"CC(=O)N1CCN(C(=O)Cc2cccc([N+](=O)[O-])c2)C(CN2CCCC2)C1 (racemic) (as salt: hydrochloride) [(R,S-10d), (R,S)-4-Acetyl-1-[(3-nitrophenyl)acetyl]-3-[(1-pyrrolidinyl)-methyl]piperazine-carboxylate hydrochloride]",143 to 145 °C,
"CS(=O)(=O)c1ccc(CC(=O)N2CCN(S(C)(=O)=O)CC2CN2CCCC2)cc1 (racemic) (as salt: hydrochloride) [(R,S-8b), (R,S)-4-Methanesulfonyl-1-[(4-methylsulfonylphenyl)acetyl]-2-[(1-pyrrolidinyl)-methyl]piperazine hydrochloride]",185 to 188 °C,
COc1cc(CC(=O)N(C)[C@H](CN2CC[C@H](O)C2)c2ccccc2)cc(OC)c1OC.Cl,230 to 232 °C,
"COc1cc(CC(=O)N(C)[C@H](CN2CCCC2)c2ccccc2)c(S(=O)(=O)N(C)CC(=O)O)cc1OC (as salt: HCl) [Example 142, N-Methyl-[[2-(N-sulfamoyl)-4,5-dimethoxyphenyl]-N-methyl-N-[(1S)-1-phenyl-2-[1-(pyrrolidinyl)ethyl]]acetamido]glycine]",231 to 233 °C (dec.),
CN(C(=O)Cc1ccc(C(F)(F)F)cc1[N+](=O)[O-])[C@@H]1c2ccccc2C[C@H]1N1CCCC1 (racemic) (as salt: HCl),249 to 250 °C,
CN(C(=O)Cc1ccc(S(C)(=O)=O)cc1)[C@H](CN1CCCC1)c1cccc([N+](=O)[O-])c1 (as salt: HCl),276 to 277 °C,
"COC(=O)N1CCN(C(=O)Cc2ccc(C(F)(F)F)cc2N(S(C)(=O)=O)S(C)(=O)=O)C(CN2CCCC2)C1 (racemic) (as salt: hydrochloride) [Example 1b, Methyl-4-[(2-[N,N-bis-methylsulfonamido]-4-trifluoromethyphenyl)acetyl]-3-(R,S)-[(1-pyrrolidinyl)-methyl]-1-piperazinecarboxylate dihydrochloride]",155 to 160 °C,
CN(C(=O)Cc1ccc(S(C)(=O)=O)cc1)[C@@H]1CCCC[C@H]1N1CCCC1.Cl (racemic),152 to 154 °C (dec.),
"COC(=O)N1CCN(C(=O)Cc2ccc(C(F)(F)F)cc2)C(CN2CCCC2)C1 (racemic) (as salt: hydrochloride) [(R,S-9b), (R,S)-Methyl 4-[(4-trifluoromethylphenyl)acetyl]-3-[(1-pyrrolidinyl)-methyl]-1-piperazinecarboxylate hydrochloride]",210 °C,
